Test results as given in ChEMBL document CHEMBL1201862, “PubChem BioAssay data set” (2004).
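Each compound was tested at five concentrations against cells in 96-well plates for 48 hours. The concentration for 50% growth inhibition is given as GI50.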 Active and inactive are the calls of the source. No stated cut-off is given here; in the data, active = GI50 up to about 1.1 µM and inactive = higher.

Key:
Assay in all cases: growth of human tumour cells (NCI), 48 h
EKVX = test system: EKVX
NCI-H23 = test system: NCI-H23
Malme-3M = test system: Malme-3M
SNB-19 = test system: SNB-19
SK-MEL-5 = test system: SK-MEL-5
SN12C = test system: SN12C
COLO 205 = test system: COLO 205
786-0 = test system: 786-0
HCT-116 = test system: HCT-116
A549 = test system: A549
LOX IMVI = test system: LOX IMVI
SNB-75 = test system: SNB-75
MCF7 = test system: MCF7
BT-549 = test system: BT-549
T47D = test system: T47D
OVCAR-4 = test system: OVCAR-4
SF-539 = test system: SF-539
HOP-92 = test system: HOP-92
UACC-257 = test system: UACC-257
NCI/ADR-RES = test system: NCI/ADR-RES
UACC-62 = test system: UACC-62
SK-MEL-2 = test system: SK-MEL-2
NCI-H460 = test system: NCI-H460
Hs-578T = test system: Hs-578T
HCT-15 = test system: HCT-15
IGROV-1 = test system: IGROV-1
K562 = test system: K562
A498 = test system: A498
UO-31 = test system: UO-31
SW-620 = test system: SW-620
HT-29 = test system: HT-29
MDA-N = test system: MDA-N
CAKI-1 = test system: CAKI-1
SF-295 = test system: SF-295
MDA-MB-435 = test system: MDA-MB-435
U-251 = test system: U-251
ACHN = test system: ACHN
KM12 = test system: KM12
OVCAR-5 = test system: OVCAR-5
OVCAR-3 = test system: OVCAR-3
SF-268 = test system: SF-268
TK-10 = test system: TK-10
SK-MEL-28 = test system: SK-MEL-28
PC-3 = test system: PC-3
RXF 393 = test system: RXF 393
M14 = test system: M14
MOLT-4 = test system: MOLT-4
HOP-62 = test system: HOP-62
OVCAR-8 = test system: OVCAR-8
HCC 2998 = test system: HCC 2998
MDA-MB-231 = test system: MDA-MB-231
NCI-H226 = test system: NCI-H226
DU-145 = test system: DU-145
SK-OV-3 = test system: SK-OV-3
NCI-H522 = test system: NCI-H522
RPMI-8226 = test system: RPMI-8226
HL-60 = test system: HL-60
CCRF-CEM = test system: CCRF-CEM

SMILES: C=CC(=O)N1C/C(=C\c2ccc(N(C)C)cc2)C(=O)/C(=C/c2ccc(N(C)C)cc2)C1
- GI50 (EKVX): > 100 µM (inactive)
- GI50 (NCI-H23): > 100 µM (inactive)
- GI50 (Malme-3M): > 100 µM (inactive)
- GI50 (SNB-19): > 100 µM (inactive)
- GI50 (SK-MEL-5): > 100 µM (inactive)
- GI50 (SN12C): > 100 µM (inactive)
- GI50 (COLO 205): > 100 µM (inactive)
- GI50 (786-0): 42.1 µM (inactive)
- GI50 (HCT-116): 40.6 µM (inactive)
- GI50 (A549): > 100 µM (inactive)
- GI50 (LOX IMVI): 11.2 µM (inactive)
- GI50 (SNB-75): > 100 µM (inactive)
- GI50 (MCF7): 4.73 µM (inactive)
- GI50 (BT-549): 73.5 µM (inactive)
- GI50 (T47D): > 100 µM (inactive)
- GI50 (OVCAR-4): > 100 µM (inactive)
- GI50 (SF-539): 26.2 µM (inactive)
- GI50 (HOP-92): > 100 µM (inactive)
- GI50 (UACC-257): > 100 µM (inactive)
- GI50 (NCI/ADR-RES): > 100 µM (inactive)
- GI50 (UACC-62): 44.3 µM (inactive)
- GI50 (SK-MEL-2): > 100 µM (inactive)
- GI50 (NCI-H460): > 100 µM (inactive)
- GI50 (Hs-578T): 30 µM (inactive)
- GI50 (HCT-15): 18.2 µM
- GI50 (IGROV-1): > 100 µM (inactive)
- GI50 (K562): 8.97 µM (inactive)
- GI50 (A498): > 100 µM (inactive)
- GI50 (UO-31): > 100 µM (inactive)
- GI50 (SW-620): 40.8 µM (inactive)
- GI50 (HT-29): 10.4 µM (inactive)
- GI50 (MDA-N): 17.8 µM (inactive)
- GI50 (CAKI-1): > 100 µM (inactive)
- GI50 (SF-295): 18.5 µM (inactive)
- GI50 (MDA-MB-435): 87.5 µM (inactive)
- GI50 (U-251): > 100 µM (inactive)
- GI50 (ACHN): > 100 µM (inactive)
- GI50 (KM12): 8.67 µM (inactive)
- GI50 (OVCAR-5): > 100 µM (inactive)
- GI50 (OVCAR-3): 41.3 µM (inactive)
- GI50 (SF-268): 67.3 µM (inactive)
- GI50 (TK-10): > 100 µM (inactive)
- GI50 (SK-MEL-28): > 100 µM (inactive)
- GI50 (PC-3): 34 µM (inactive)
- GI50 (RXF 393): 43.1 µM (inactive)
- GI50 (M14): > 100 µM (inactive)
- GI50 (MOLT-4): 25.8 µM (inactive)
- GI50 (HOP-62): > 100 µM (inactive)
- GI50 (OVCAR-8): > 100 µM (inactive)
- GI50 (HCC 2998): > 100 µM (inactive)
- GI50 (MDA-MB-231): > 100 µM (inactive)
- GI50 (NCI-H226): > 100 µM (inactive)
- GI50 (DU-145): > 100 µM (inactive)

SMILES: CC(C)C(C(=O)O)N1C(=O)c2ccccc2C1=O (stereo not drawn)
- GI50 (EKVX): > 100 µM (inactive)
- GI50 (NCI-H23): > 100 µM (inactive)
- GI50 (Malme-3M): > 100 µM (inactive)
- GI50 (SNB-19): > 100 µM (inactive)
- GI50 (SK-OV-3): > 100 µM (inactive)
- GI50 (SK-MEL-5): > 100 µM (inactive)
- GI50 (SN12C): > 100 µM (inactive)
- GI50 (COLO 205): > 100 µM (inactive)
- GI50 (786-0): > 100 µM (inactive)
- GI50 (HCT-116): > 100 µM (inactive)
- GI50 (A549): > 100 µM (inactive)
- GI50 (LOX IMVI): > 100 µM (inactive)
- GI50 (SNB-75): > 100 µM (inactive)
- GI50 (MCF7): > 100 µM (inactive)
- GI50 (BT-549): > 100 µM (inactive)
- GI50 (T47D): > 100 µM (inactive)
- GI50 (OVCAR-4): > 100 µM (inactive)
- GI50 (HOP-92): > 100 µM (inactive)
- GI50 (UACC-257): > 100 µM (inactive)
- GI50 (NCI/ADR-RES): > 100 µM (inactive)
- GI50 (UACC-62): > 100 µM (inactive)
- GI50 (SK-MEL-2): 0.18 µM (active)
- GI50 (NCI-H460): > 100 µM (inactive)
- GI50 (Hs-578T): > 100 µM (inactive)
- GI50 (HCT-15): > 100 µM
- GI50 (IGROV-1): > 100 µM (inactive)
- GI50 (K562): > 100 µM (inactive)
- GI50 (A498): > 100 µM (inactive)
- GI50 (NCI-H522): > 100 µM (inactive)
- GI50 (SW-620): > 100 µM (inactive)
- GI50 (HT-29): > 100 µM (inactive)
- GI50 (MDA-N): > 100 µM (inactive)
- GI50 (CAKI-1): > 100 µM (inactive)
- GI50 (SF-295): > 100 µM (inactive)
- GI50 (MDA-MB-435): > 100 µM (inactive)
- GI50 (U-251): > 100 µM (inactive)
- GI50 (ACHN): > 100 µM (inactive)
- GI50 (KM12): > 100 µM (inactive)
- GI50 (RPMI-8226): > 100 µM (inactive)
- GI50 (OVCAR-5): > 100 µM (inactive)
- GI50 (OVCAR-3): > 100 µM (inactive)
- GI50 (SF-268): > 100 µM (inactive)
- GI50 (TK-10): > 100 µM (inactive)
- GI50 (SK-MEL-28): > 100 µM (inactive)
- GI50 (PC-3): > 100 µM (inactive)
- GI50 (RXF 393): > 100 µM (inactive)
- GI50 (M14): > 100 µM (inactive)
- GI50 (HL-60): > 100 µM (inactive)
- GI50 (MOLT-4): > 100 µM (inactive)
- GI50 (HOP-62): > 100 µM (inactive)
- GI50 (OVCAR-8): > 100 µM (inactive)
- GI50 (CCRF-CEM): > 100 µM (inactive)
- GI50 (HCC 2998): > 100 µM (inactive)
- GI50 (MDA-MB-231): > 100 µM (inactive)
- GI50 (NCI-H226): > 100 µM (inactive)
- GI50 (DU-145): > 100 µM (inactive)

SMILES: COC(=O)C1Cc2c(OC)ccc(OC)c2CC(C(=O)OC)C1=O (stereo not drawn)
- GI50 (EKVX): > 100 µM (inactive)
- GI50 (NCI-H23): 32.4 µM (inactive)
- GI50 (Malme-3M): > 100 µM (inactive)
- GI50 (SNB-19): > 100 µM (inactive)
- GI50 (SK-OV-3): > 100 µM (inactive)
- GI50 (SK-MEL-5): > 100 µM (inactive)
- GI50 (SN12C): > 100 µM (inactive)
- GI50 (COLO 205): > 100 µM (inactive)
- GI50 (786-0): > 100 µM (inactive)
- GI50 (HCT-116): > 100 µM (inactive)
- GI50 (A549): > 100 µM (inactive)
- GI50 (SNB-75): > 100 µM (inactive)
- GI50 (MCF7): > 100 µM (inactive)
- GI50 (BT-549): > 100 µM (inactive)
- GI50 (T47D): > 100 µM (inactive)
- GI50 (OVCAR-4): > 100 µM (inactive)
- GI50 (SF-539): > 100 µM (inactive)
- GI50 (HOP-92): 44 µM (inactive)
- GI50 (UACC-257): > 100 µM (inactive)
- GI50 (NCI/ADR-RES): > 100 µM (inactive)
- GI50 (UACC-62): > 100 µM (inactive)
- GI50 (NCI-H460): > 100 µM (inactive)
- GI50 (Hs-578T): > 100 µM (inactive)
- GI50 (HCT-15): > 100 µM
- GI50 (IGROV-1): > 100 µM (inactive)
- GI50 (K562): > 100 µM (inactive)
- GI50 (A498): > 100 µM (inactive)
- GI50 (UO-31): 56 µM (inactive)
- GI50 (NCI-H522): > 100 µM (inactive)
- GI50 (SW-620): > 100 µM (inactive)
- GI50 (HT-29): > 100 µM (inactive)
- GI50 (MDA-N): > 100 µM (inactive)
- GI50 (CAKI-1): > 100 µM (inactive)
- GI50 (SF-295): > 100 µM (inactive)
- GI50 (MDA-MB-435): > 100 µM (inactive)
- GI50 (U-251): > 100 µM (inactive)
- GI50 (ACHN): 63.5 µM (inactive)
- GI50 (KM12): > 100 µM (inactive)
- GI50 (RPMI-8226): > 100 µM (inactive)
- GI50 (OVCAR-5): > 100 µM (inactive)
- GI50 (OVCAR-3): > 100 µM (inactive)
- GI50 (SF-268): > 100 µM (inactive)
- GI50 (SK-MEL-28): > 100 µM (inactive)
- GI50 (PC-3): > 100 µM (inactive)
- GI50 (RXF 393): > 100 µM (inactive)
- GI50 (M14): > 100 µM (inactive)
- GI50 (MOLT-4): > 100 µM (inactive)
- GI50 (HOP-62): > 100 µM (inactive)
- GI50 (OVCAR-8): > 100 µM (inactive)
- GI50 (CCRF-CEM): > 100 µM (inactive)
- GI50 (HCC 2998): > 100 µM (inactive)
- GI50 (MDA-MB-231): > 100 µM (inactive)
- GI50 (NCI-H226): > 100 µM (inactive)
- GI50 (DU-145): > 100 µM (inactive)
